One data set deals with T1, human GLP-1 receptor (Homo sapiens, UniProt P43220).
T1 construct: expressed in transfected cells; host or cells: BHK cells (parent line BHKTS13) containing CRE luciferase
Description: In vitro functional potency (CRE luciferase; whole cells), human GLP-1R. In kind it is cell-based. The settings on record: BHK CRE luc2P hGLP-1R whole cells; Table 2; read-out: hGLP-1R CRE Luc EC50.

The nature of data set [1]: Pharmacokinetic study in minipigs, i.v. administration. The arrangement: species or system Göttingen minipigs. The conditions noted are these: female, Göttingen, minipig, in vivo, iv. The protocol:
The purpose of this example is to determine the half-life in vivo of the triple agonists as described herein after i.v. administration to minipigs, i.e. the prolongation of their time in the body and thereby their time of action. This is done in a pharmacokinetic (PK) study, where the terminal half-life of the triple agonist in question is determined. By terminal half-life is generally meant the period of time it takes to halve a certain plasma concentration, measured after the initial distribution phase.
Female Göttingen minipigs were obtained from Ellegaard Göttingen Minipigs (Dalmose, Denmark) approximately 7-14 months of age and weighing from approximately 16-35 kg were used in the studies. The minipigs were housed individually and fed restrictedly once daily with SDS minipig diet (Special Diets Services, Essex, UK).
After at 3 weeks of acclimatisation two permanent central venous catheters were implanted in vena cava caudalis in each animal. The animals were allowed 1 week recovery after the surgery, and were then used for repeated pharmacokinetic studies with a suitable wash-out period between successive dosings.
The animals were fasted for approximately 18 hours before dosing and from 0 to 4 hours after dosing, but had adlibitum access to water during the whole period.
Intravenous injections (the volume corresponding to usually 1.5-2 nmol/kg, for example 0.1 mL/kg) of the triple agonists were given through one catheter, and blood was sampled at predefined time points for up to 14 days post dosing (preferably through the other catheter). Blood samples (for example 0.8 mL) were collected in 8 mM EDTA buffer and then centrifuged at 4° C. and 1942 g for 10 minutes.
Plasma was pipetted into Micronic tubes on dry ice and kept at −20° C. until analysed for plasma concentration of the triple agonists using ELISA, or a similar antibody-based assay, or LCMS. Individual plasma concentration-time profiles were analysed by a non-compartmental model in Phoenix WinNonLin ver. 6.4. (Pharsight Inc., Mountain View, CA, USA), and the resulting terminal half-lives (harmonic mean) determined.

Broadly, the EC50 is the concentration that produces a half-maximal response. One may read the half-life as the time in which the quantity being followed falls by half. Low values mean fast loss, high ones slow loss.

*1 amine or outer side, *2 acyl side, *3 side chain or, on linkers, in order; H or OH if unused. Where a SMILES comes first, the peptide text is derived from it. Side-chain parts run from the residue outwards. [ ]: non-standard residue; d: D form. The star is where a group is joined. C20 diacid = O=C(O)CCCCCCCCCCCCCCCCCCC(=O)*; γGlu = O=C(O)[C@H](CCC(=O)[*:2])N[*:1]; εLys = N[C@@H](CCCCN[*:1])C(=O)[*:2]; AEEA = NCCOCCOCC(=O)O; Aib = CC(C)(N)C(=O)O

T1 sequence (P43220 24-463): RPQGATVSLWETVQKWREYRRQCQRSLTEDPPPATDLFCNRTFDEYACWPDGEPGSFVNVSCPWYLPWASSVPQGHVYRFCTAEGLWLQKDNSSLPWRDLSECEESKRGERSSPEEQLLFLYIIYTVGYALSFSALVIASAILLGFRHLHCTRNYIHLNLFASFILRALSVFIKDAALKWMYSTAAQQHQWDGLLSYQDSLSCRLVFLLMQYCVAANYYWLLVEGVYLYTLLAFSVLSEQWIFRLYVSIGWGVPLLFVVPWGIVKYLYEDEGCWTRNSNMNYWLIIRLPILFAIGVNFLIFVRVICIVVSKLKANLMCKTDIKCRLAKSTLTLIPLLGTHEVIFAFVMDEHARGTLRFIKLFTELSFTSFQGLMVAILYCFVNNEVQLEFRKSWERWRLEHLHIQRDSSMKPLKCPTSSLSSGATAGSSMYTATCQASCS

As to `CC(C)C[C@H](NC(=O)[C@H](CC(C)C)NC(=O)[C@H](Cc1c[nH]c2ccccc12)NC(=O)[C@H](CCC(N)=O)NC(=O)[C@@H](NC(=O)[C@H](Cc1ccccc1)NC(=O)[C@H](CCC(=O)O)NC(=O)C(C)(C)NC(=O)[C@H](C)NC(=O)[C@H](C)NC(=O)[C@H](CCCCN)NC(=O)[C@H](CCCCNC(=O)[C@@H](N)CCCCNC(=O)[C@@H](N)CCCCNC(=O)CC[C@H](NC(=O)CCCCCCCCCCCCCCCCCCC(=O)O)C(=O)O)NC(=O)[C@H](CCC(=O)O)NC(=O)[C@H](CC(C)C)NC(=O)[C@H](Cc1ccc(O)cc1)NC(=O)[C@H](Cc1ccc(O)cc1)NC(=O)[C@H](CO)NC(=O)[C@H](Cc1ccc(O)cc1)NC(=O)[C@H](CC(=O)O)NC(=O)[C@H](CO)NC(=O)[C@@H](NC(=O)[C@H](Cc1ccccc1)NC(=O)[C@@H](NC(=O)CNC(=O)[C@H](Cc1c[nH]cn1)NC(=O)C(C)(C)NC(=O)[C@@H](N)Cc1c[nH]cn1)[C@@H](C)O)[C@@H](C)O)C(C)C)C(=O)N[C@@H](CCC(=O)O)C(=O)NCC(=O)NCC(=O)N1CCC[C@H]1C(=O)N[C@@H](CO)C(=O)N[C@@H](CO)C(=O)NCC(=O)N[C@@H](C)C(=O)N1CCC[C@H]1C(=O)N1CCC[C@H]1C(=O)N1CCC[C@H]1C(=O)N[C@@H](CO)C(N)=O` [Compound No. 31] (H-H[Aib]HGTFTSDYSYYLEK([εLys-εLys-γGlu-C20 diacid])KAA[Aib]EFVQWLLEGGPSSGAPPPS-NH2; N-terminus assumed), the 50% effective concentration (EC50) at human GLP-1 receptor was determined as 3 pM. The compound also showed a half-life in data set [1] of 2.29 days.
For `CC[C@H](C)[C@H](NC(=O)[C@H](CO)NC(=O)[C@H](Cc1ccc(O)cc1)NC(=O)[C@H](CC(=O)O)NC(=O)[C@H](CO)NC(=O)[C@@H](NC(=O)[C@H](Cc1ccccc1)NC(=O)[C@@H](NC(=O)CNC(=O)[C@H](CCC(N)=O)NC(=O)C(C)(C)NC(=O)[C@@H](N)Cc1ccc(O)cc1)[C@@H](C)O)[C@@H](C)O)C(=O)N[C@@H](Cc1ccc(O)cc1)C(=O)N[C@@H](CC(C)C)C(=O)N[C@@H](CC(=O)O)C(=O)N[C@@H](CCCCN)C(=O)N[C@@H](CCCCNC(=O)COCCOCCNC(=O)COCCOCCNC(=O)CC[C@H](NC(=O)CCCCCCCCCCCCCCCCCCC(=O)O)C(=O)O)C(=O)N[C@@H](C)C(=O)N[C@@H](C)C(=O)NC(C)(C)C(=O)N[C@@H](CCC(=O)O)C(=O)N[C@@H](Cc1ccccc1)C(=O)N[C@H](C(=O)N[C@@H](CC(N)=O)C(=O)N[C@@H](Cc1c[nH]c2ccccc12)C(=O)N[C@@H](CC(C)C)C(=O)N[C@@H](CC(C)C)C(=O)N[C@@H](C)C(=O)NCC(=O)NCC(=O)N1CCC[C@H]1C(=O)N[C@@H](CO)C(=O)N[C@@H](CO)C(=O)NCC(=O)N[C@@H](C)C(=O)N1CCC[C@H]1C(=O)N1CCC[C@H]1C(=O)N1CCC[C@H]1C(=O)N[C@@H](CO)C(N)=O)C(C)C` [Compound No. 9] (H-Y[Aib]QGTFTSDYSIYLDKK([AEEA-AEEA-γGlu-C20 diacid])AA[Aib]EFVNWLLAGGPSSGAPPPS-NH2) the same measures were 4.4 pM and 4.29 days.
Taken in the same sequence, the figures for `CC[C@H](C)[C@H](NC(=O)[C@H](CO)NC(=O)[C@H](Cc1ccc(O)cc1)NC(=O)[C@H](CC(=O)O)NC(=O)[C@H](CO)NC(=O)[C@@H](NC(=O)[C@H](Cc1ccccc1)NC(=O)[C@@H](NC(=O)CNC(=O)[C@H](Cc1c[nH]cn1)NC(=O)C(C)(C)NC(=O)[C@@H](N)Cc1c[nH]cn1)[C@@H](C)O)[C@@H](C)O)C(=O)N[C@@H](Cc1ccc(O)cc1)C(=O)N[C@@H](CC(C)C)C(=O)N[C@@H](CCC(=O)O)C(=O)N[C@@H](CCCCNC(=O)COCCOCCNC(=O)COCCOCCNC(=O)CC[C@H](NC(=O)CCCCCCCCCCCCCCCCCCC(=O)O)C(=O)O)C(=O)N[C@@H](CCCCN)C(=O)N[C@@H](Cc1ccc(O)cc1)C(=O)N[C@@H](C)C(=O)NC(C)(C)C(=O)N[C@@H](CCC(=O)O)C(=O)N[C@@H](Cc1ccccc1)C(=O)N[C@H](C(=O)N[C@@H](CCC(N)=O)C(=O)N[C@@H](Cc1c[nH]c2ccccc12)C(=O)N[C@@H](CC(C)C)C(=O)N[C@@H](CC(C)C)C(=O)N[C@@H](CCC(=O)O)C(=O)NCC(=O)NCC(=O)N1CCC[C@H]1C(=O)N[C@@H](CO)C(=O)N[C@@H](CO)C(=O)NCC(=O)N[C@@H](C)C(=O)N1CCC[C@H]1C(=O)N1CCC[C@H]1C(=O)N1CCC[C@H]1C(=O)N[C@@H](CO)C(N)=O)C(C)C` [Compound No. 39] (H-H[Aib]HGTFTSDYSIYLEK([AEEA-AEEA-γGlu-C20 diacid])KYA[Aib]EFVQWLLEGGPSSGAPPPS-NH2) were 4.4 pM and 2.75 days.
For `CC(C)C[C@H](NC(=O)[C@H](CC(C)C)NC(=O)[C@H](Cc1c[nH]c2ccccc12)NC(=O)[C@H](CCC(N)=O)NC(=O)[C@@H](NC(=O)[C@H](Cc1ccccc1)NC(=O)[C@H](CCC(=O)O)NC(=O)C(C)(C)NC(=O)[C@H](C)NC(=O)[C@H](C)NC(=O)[C@H](CCC(N)=O)NC(=O)[C@H](CCCCNC(=O)[C@@H](N)CCCCNC(=O)[C@@H](N)CCCCNC(=O)CC[C@H](NC(=O)CCCCCCCCCCCCCCCCCCC(=O)O)C(=O)O)NC(=O)[C@H](CCC(=O)O)NC(=O)[C@H](CC(C)C)NC(=O)[C@H](CC(C)C)NC(=O)[C@H](Cc1ccc(O)cc1)NC(=O)[C@H](CO)NC(=O)[C@H](Cc1ccc(O)cc1)NC(=O)[C@H](CC(=O)O)NC(=O)[C@H](CO)NC(=O)[C@@H](NC(=O)[C@H](Cc1ccccc1)NC(=O)[C@@H](NC(=O)CNC(=O)[C@H](Cc1c[nH]cn1)NC(=O)C(C)(C)NC(=O)[C@@H](N)Cc1c[nH]cn1)[C@@H](C)O)[C@@H](C)O)C(C)C)C(=O)N[C@@H](CCC(=O)O)C(=O)NCC(=O)NCC(=O)N1CCC[C@H]1C(=O)N[C@@H](CO)C(=O)N[C@@H](CO)C(=O)NCC(=O)N[C@@H](C)C(=O)N1CCC[C@H]1C(=O)N1CCC[C@H]1C(=O)N1CCC[C@H]1C(=O)N[C@@H](CO)C(N)=O` [Compound No. 42] (H-H[Aib]HGTFTSDYSYLLEK([εLys-εLys-γGlu-C20 diacid])QAA[Aib]EFVQWLLEGGPSSGAPPPS-NH2; N-terminus assumed), the half-life in data set [1] is 2.75 days.
The same measure, in the same setting: in the case of `CC[C@H](C)[C@H](NC(=O)[C@H](CO)NC(=O)[C@H](Cc1ccc(O)cc1)NC(=O)[C@H](CC(=O)O)NC(=O)[C@H](CO)NC(=O)[C@@H](NC(=O)[C@H](Cc1ccccc1)NC(=O)[C@@H](NC(=O)CNC(=O)[C@H](CCC(N)=O)NC(=O)C(C)(C)NC(=O)[C@@H](N)Cc1ccc(O)cc1)[C@@H](C)O)[C@@H](C)O)C(=O)N[C@@H](Cc1ccc(O)cc1)C(=O)N[C@@H](CC(C)C)C(=O)N[C@@H](CC(=O)O)C(=O)N[C@@H](CCCCN)C(=O)N[C@@H](CCC(N)=O)C(=O)N[C@@H](C)C(=O)N[C@@H](C)C(=O)NC(C)(C)C(=O)N[C@@H](CCCCNC(=O)COCCOCCNC(=O)COCCOCCNC(=O)CC[C@H](NC(=O)CCCCCCCCCCCCCCCCCCC(=O)O)C(=O)O)C(=O)N[C@@H](Cc1ccccc1)C(=O)N[C@H](C(=O)N[C@@H](CCC(N)=O)C(=O)N[C@@H](Cc1c[nH]c2ccccc12)C(=O)N[C@@H](CC(C)C)C(=O)N[C@@H](CC(C)C)C(=O)N[C@@H](CCC(=O)O)C(=O)NCC(=O)NCC(=O)N1CCC[C@H]1C(=O)N[C@@H](CO)C(=O)N[C@@H](CO)C(=O)NCC(=O)N[C@@H](C)C(=O)N1CCC[C@H]1C(=O)N1CCC[C@H]1C(=O)N1CCC[C@H]1C(=O)N[C@@H](CO)C(N)=O)C(C)C` [Compound No. 7] (H-Y[Aib]QGTFTSDYSIYLDKQAA[Aib]K([AEEA-AEEA-γGlu-C20 diacid])FVQWLLEGGPSSGAPPPS-NH2; N-terminus assumed) it was 3.29 days.

Source of the values: patent US20230391845A1, “GLP-1, GIP AND GLUCAGON RECEPTOR TRIPLE AGONISTS” (priority 2020, published 2023).
